Laboratory results published in BindingDB's records for doi:10.1016/s0960-894x(99)00093-1 (Sankyo, 1999).

Legend:
[1] = target: T1, Substance-P receptor (Cavia porcellus, UniProt P30547); test: (§1) Inhibitory activity against Neurokinin 1 (NK1) receptor from guinea pig lung
[2] = target: T1, Substance-P receptor; test: ChEBML_144914; source text: as §1
[3] = target: T2, Substance-K receptor (Cavia porcellus, UniProt Q64077); test: ChEBML_142706
T2 sequence (Q64077 whole entry): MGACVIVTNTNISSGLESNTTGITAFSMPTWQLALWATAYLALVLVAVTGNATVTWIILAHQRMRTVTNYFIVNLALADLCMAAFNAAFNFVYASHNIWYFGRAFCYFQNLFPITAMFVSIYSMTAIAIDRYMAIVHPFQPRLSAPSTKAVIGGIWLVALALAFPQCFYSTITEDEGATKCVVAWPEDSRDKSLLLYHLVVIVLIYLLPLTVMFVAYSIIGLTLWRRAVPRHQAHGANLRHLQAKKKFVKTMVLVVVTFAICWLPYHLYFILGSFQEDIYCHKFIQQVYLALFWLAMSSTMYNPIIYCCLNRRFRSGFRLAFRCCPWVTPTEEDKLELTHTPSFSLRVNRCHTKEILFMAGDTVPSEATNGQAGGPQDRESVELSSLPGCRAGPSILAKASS
Source text: (§2) Inhibitory activity against Neurokinin 2 (NK2) receptor from guinea pig ileum

[4] = target: T2, Substance-K receptor; test: as §2

T1 sequence (P30547 whole entry): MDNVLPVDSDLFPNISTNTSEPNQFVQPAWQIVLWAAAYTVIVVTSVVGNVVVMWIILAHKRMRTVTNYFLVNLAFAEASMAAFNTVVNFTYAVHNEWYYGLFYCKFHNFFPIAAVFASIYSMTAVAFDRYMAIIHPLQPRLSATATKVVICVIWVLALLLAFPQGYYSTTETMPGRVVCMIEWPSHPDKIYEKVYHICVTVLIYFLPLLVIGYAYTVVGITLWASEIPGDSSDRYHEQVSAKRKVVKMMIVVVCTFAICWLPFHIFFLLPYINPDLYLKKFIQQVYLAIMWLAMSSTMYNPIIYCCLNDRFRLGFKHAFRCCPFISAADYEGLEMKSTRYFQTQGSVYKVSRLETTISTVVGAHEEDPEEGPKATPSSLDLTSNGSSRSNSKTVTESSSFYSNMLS

Row | Structure (SMILES) | IC50 [1] [nM] | IC50 [4] [nM] | further results
1 | COc1cc(C(=O)N2CO[C@](CCN3CCC(C(N)=O)(c4ccccc4)CC3)(c3ccc(F)cc3)C2)cc(OC)c1OC | 27 |  | 
2 | COc1cc(C(=O)N2CO[C@](CCN3CCC4(CC3)c3ccccc3C[S+]4[O-])(c3ccc(F)c(F)c3)C2)cc(OC)c1OC (some centres undefined) |  |  | IC50 [2]: 16 nM
3 | COc1cc(C(=O)N2CO[C@](CCN3CCC(C(=O)N(C)C)(c4ccccc4)CC3)(c3ccc(F)c(F)c3)C2)cc(OC)c1OC |  |  | IC50 [2]: 27 nM
4 | COc1cc(C(=O)N2CO[C@](CCN3CCC4(CC3)NC(=O)Cc3ccccc34)(c3ccc(F)c(F)c3)C2)cc(OC)c1OC |  |  | IC50 [2]: 28 nM
5 | COc1cc(C(=O)N2CO[C@](CCN3CCC(C(N)=O)(c4ccccc4)CC3)(c3ccc(Cl)cc3)C2)cc(OC)c1OC | 27 |  | 
6 | COc1cc(C(=O)N2CO[C@](CCN3CCC4(CC3)c3ccccc3C[S+]4[O-])(c3ccc(Cl)c(Cl)c3)C2)cc(OC)c1OC (some centres undefined) |  |  | IC50 [3]: 7.5 nM
7 | COc1cc(C(=O)N2CO[C@](CCN3CCN(c4ccc(C(C)=O)cc4)CC3)(c3ccc(Cl)c(Cl)c3)C2)cc(OC)c1OC | 18 | 74 | 
8 | COc1cc(C(=O)N2CO[C@](CCN3CCC(C(N)=O)(c4ccccc4)CC3)(c3ccc(Cl)c(Cl)c3)C2)cc(OC)c1OC |  |  | IC50 [3]: 91 nM
9 | COc1cc(C(=O)N2CO[C@](CCN3CCC(C(=O)N(C)C)(c4ccccc4)CC3)(c3ccc(Cl)cc3)C2)cc(OC)c1OC |  | 4.7 | 
10 | COc1cc(C(=O)N2CO[C@](CCN3CCC4(CC3)C(=O)N(C)c3ccccc34)(c3ccc(Cl)c(Cl)c3)C2)cc(OC)c1OC |  |  | IC50 [3]: 34 nM
11 | COc1cc(C(=O)N2CO[C@](CCN3CCC(C(=O)N4CCOCC4)(c4ccccc4)CC3)(c3ccc(Cl)c(Cl)c3)C2)cc(OC)c1OC |  | 52 | 
12 | COc1cc(C(=O)N2CO[C@](CCN3CCC4(CC3)C[S+]([O-])c3ccccc34)(c3ccc(Cl)c(Cl)c3)C2)cc(OC)c1OC (some centres undefined) |  | 7.3 | 
13 | COc1cc(C(=O)N2CO[C@](CCN3CCC(C(N)=O)(c4ccccc4)CC3)(c3ccc(F)c(F)c3)C2)cc(OC)c1OC | 10 |  | 
